Test results as given in patent US20160136295A1, “BIOMARKERS FOR TREATMENT WITH ANTI-TUBULIN CHEMOTHERAPEUTIC COMPOUNDS” (GENENTECH, INC., priority 2012, published 2016).
Peptide text beside a SMILES is read from it. * marks the point of attachment. Cbz = O=C(OCc1ccccc1)*

Tests used:
[1] = tested on: Mcl-1 S121; assay: In vitro kinase reactions: percent phosphorylation of full-length recombinant Mcl-1 at S121; format: biochemical, human; conditions: for Percent phosphorylation S121, AVE: average of INJ1 and INJ2; for Percent phosphorylation S121, INJ1: sample injection 1; for Percent phosphorylation S121, INJ2: sample injection 2
Procedure: (§1) To determine the suitability of residues in Mcl-1 as kinase substrates, 10 μM of Mcl-1 was incubated with selected kinase at enzyme concentrations between 25 and 100 nM. For these reactions the Mcl-1 was dialyzed into 20 mM Phosphate, 50 mM Tris pH 7.5 150 mM NaCl, 5 mM DTT and 0.5% CHAPS. The protein solution was further supplemented with MgCl2 to 10 mM and ATP to 1 mM prior to addition of kinase. Purified recombinant kinases were purchased from Invitrogen Co. (Carlsbad, Calif.).
(§2) 10 μl of each of the Mcl-1 kinase reactions (100 pmol) were loaded onto a 4-12% Bis-Tris gel for separation by SDS-PAGE after reduction. Mcl-1 bands were excised from the gel, dehydrated (50% acetonitrile in 50 mM ammonium bicarbonate then 100% acetonitrile washes), and incubated with 0.2 μg trypsin overnight at 37° C.
(§3) Samples were injected in duplicate via autosampler onto a nanoAcquity® UPLC (Waters, Milford, Mass.) and analyzed on-line via nanospray ionization into an LTQ-Orbitrap® mass spectrometer at a concentration of 300 fmol synthetic peptide mix per injection. Areas were integrated for the isotopic and kinase phosphorylated peptides, and compared to their non-phosphorylated peptide counterparts to obtain percent phosphorylation values.

[2] = tested on: Mcl-1 S159; assay: In vitro kinase reactions: percent phosphorylation of full-length recombinant Mcl-1 at S159 alone; format: biochemical, human; conditions: % phos on S159 alone; for Percent phosphorylation S159, AVE: average; for Percent phosphorylation S159, INJ1: sample injection 1; for Percent phosphorylation S159, INJ2: sample injection 2
Procedure: as §1, §2
as §3, with “values. For phosphorylation analysis of T92, no synthetic peptide was available so peak areas of the phosphorylated peptide covering residues 76-95 was divided by the total occurrence of peptide 76-95 in both phosphorylated and non-phosphorylated forms.” for “values.”

[3] = tested on: Mcl-1 T163; assay: In vitro kinase reactions: percent phosphorylation of full-length recombinant Mcl-1 at T163; format: biochemical, human; conditions: single kinase reactions; for Percent phosphorylation T163, AVE: average of INJ1 and INJ2; for Percent phosphorylation T163, INJ1: sample injection 1; for Percent phosphorylation T163, INJ2: sample injection 2
Procedure: as §1, §2, §3

[4] = tested on: Mcl-1 T92; assay: In vitro kinase reactions: percent phosphorylation of full-length recombinant Mcl-1 at T92; format: biochemical, human; conditions: single kinase reactions, peak areas of 0 and 1P, triple charged state; for Percent phosphorylation T92, AVE: average; for Percent phosphorylation T92, INJ1: sample injection 1; for Percent phosphorylation T92, INJ2: sample injection 2
Procedure: as §1, §2, §3

[5] = tested on: Mcl-1 S159/T163; assay: In vitro kinase reactions: percent phosphorylation of full-length recombinant Mcl-1 at S159+T163; format: biochemical, human; conditions: for Percent phosphorylation S159/T163, AVE: average; for Percent phosphorylation S159/T163, INJ1: sample injection 1; for Percent phosphorylation S159/T163, INJ2: sample injection 2
Procedure: as §1, §2, §3

[6] = tested on: Mcl-1; assay: Mcl-1 protein level / degradation in mitotic arrest (western blot of synchronized cells); format: cell-based, human
Procedure: (§4) The viability of cancer cell lines, and MEFs in which genes encoding IAPs had been knocked out, was analysed by using the CellTiter-Glo Luminescent Cell Viability Assay® (Promega). Cells were treated in triplicate with anti-tubulin agents for the indicated times, using dimethylsulphoxide treatment as a control. The viability of BCL2-family-member-null MEFs was analysed by propidium iodide staining, as described previously (Chen, L. et al. (2005) Molecular cell 17:393-403), after treatment with anti-tubulin agents for 48 h. Cell synchronization was achieved by culture either in serum-free medium for 12-16 h or in medium containing 2 mM thymidine for 18-24 h, release from the thymidine block with three washes in PBS, followed by culture for 8-12 h in complete growth media (compositions are described in the Supplementary Information). Cells then underwent a second thymidine block for 16-20 h, three further washes in PBS and release into complete medium containing the indicated reagents. To block MCL1 degradation, […] MG132 was added as cells entered mitotic arrest, as assessed by visual inspection. See the Examples for full methods.
Western blotting was performed essentially as described (Wertz, I. E. et al. (2004) Science (New York, N.Y 303:1371-1374). In brief, cells were lysed in corrected FLAG elution buffer (CFEB) (19.17 mM Tris (pH 7.5), 916.7 μM MgCl2, 92.5 mM NaCl and 0.1% Triton X-100) with protease and phosphatase inhibitors; in some cases 6 M urea was added. Cleared lysates were quantitated and equal amounts of proteins were reduced, alkylated, separated by SDS-PAGE, and transferred onto PVDF membranes (Invitrogen) following standard procedures. Western blotting was performed as recommended by the respective antibody manufacturers. Patient tissue and xenograft samples were lysed in 5× volume of CFEB with protease inhibitors using Fast prep 24 (MP Biologicals). Tissue lysates were cleared and 40 μg total protein was prepared for western blotting analysis as described above. Immunoprecipitations were performed with the indicated antibodies as described (Willis, S. N. et al. (2007) Science (New York, N.Y 315:856-859; Wertz, I. E. et al. (2004) Science (New York, N.Y 303:1371-1374). PP2A activity was performed on PP2A or Mcl-1 immunoprecipitates as recommended by the manufacturer (Upstate)

[7] = tested on: murine embryonic fibroblasts (MEFs); assay: Viability of BCL2-family-member-null MEFs by propidium iodide staining after anti-tubulin agents; format: cell-based; conditions: for sensitivity to killing: 48 hours; for killing (cell viability): treated 48 hours
Procedure: as §4

[8] = tested on: FBW7-WT, FBW7−/− or FBW7 mutant colon cancer cell lines (HCT116, DLD1); assay: Cell viability of colon cancer cell lines by FBW7 status (CellTiter-Glo); format: cell-based, human; conditions: 48 hours
Procedure: as §4
were synthesized by Ambion and experiments were performed as described (Huang, H. C., et al (2009) Cancer cell 16:347-358). For viability experiments using stable cell lines transfected with doxycycline-inducible shRNAs to LacZ or Mcl-1 ORF, cells were plated in 10 cm2 plates with 0.2 μg/mL doxycycline for two days. On the third day, cells were plated in to 96-well plates at 5×10^3 per well for viability assays as described above. […] For western blot analysis, cells were harvested at indicated time points and processed as described above.

[9] = tested on: HCT116 cells; assay: Live time-lapse imaging of mitotic fate; format: cell-based, human
Procedure: HCT116 parental or FBW7−/− cells expressing shLacZ or shMcl-1 were plated at 15,000-30,000 cells per well in 96-well μ-plates (ibidi GmbH) and infected with GFP-H2B baculovirus (Invitrogen) 24 hours prior to adding paclitaxel or vincristine. Cells were imaged live at 37° C. with 5% CO2 using a Nikon TiE® microscope with a Cool Snap® CCD camera (Roper Scientific) and a Plan Apo VC 20× 0.75 NA objective. Three images with 6 μm z-steps were acquired for each position every 10 minutes for 43 hours. Mitotic fate was analyzed manually using NIS-Elements software (Nikon) and numerical data was complied and statistically analyzed using Excel (Microsoft). Fifty mitotic cells were analyzed for each condition and p-values were calculated for the change in the number of cells that exited mitosis or entered apoptosis using the one-tailed Fisher's exact test.

[10] = % phos on S159+T163, CDK1 + kinase panel reactions
[11] = % phos on S159+T163, single kinase reactions

Row | Percent phosphorylation S121, AVE ([1]; CDK1 + kinase panel reactions) | Percent phosphorylation S121, INJ1 ([1]; CDK1 + kinase panel reactions) | Percent phosphorylation S121, INJ2 ([1]; CDK1 + kinase panel reactions) | Percent phosphorylation S121, AVE ([1]; single kinase reactions) | Percent phosphorylation S121, INJ1 ([1]; single kinase reactions) | Percent phosphorylation S121, INJ2 ([1]; single kinase reactions) | Percent phosphorylation T163, AVE [3] | Percent phosphorylation T163, INJ1 [3] | Percent phosphorylation T163, INJ2 [3] | Percent phosphorylation T92, AVE [4] | Percent phosphorylation T92, INJ1 [4] | Percent phosphorylation T92, INJ2 [4] | Percent phosphorylation S159/T163, AVE [5, 10] | Percent phosphorylation S159/T163, INJ1 [5, 10] | Percent phosphorylation S159/T163, INJ2 [5, 10] | Percent phosphorylation S159/T163, AVE [5, 11] | Percent phosphorylation S159/T163, INJ1 [5, 11] | Percent phosphorylation S159/T163, INJ2 [5, 11] | Compound | other results
1 | 21.48% | 20.17% | 22.78% | 10.28% | 10.20% | 10.36% | 0.00% | 0.00% | 0.00% | 0.10% | 0.09% | 0.10% | 7.70% | 8.30% | 7.09% | 3.80% | 5.61% | 1.99% | CSNK2: purified recombinant kinase purchased from Invitrogen | Percent phosphorylation S159, AVE ([2]; CDK1 + kinase panel reactions): 17.13%; Percent phosphorylation S159, INJ1 ([2]; CDK1 + kinase panel reactions): 16.35%; Percent phosphorylation S159, INJ2 ([2]; CDK1 + kinase panel reactions): 17.90%; Percent phosphorylation S159, AVE ([2]; single kinase reactions): 39.13%; Percent phosphorylation S159, INJ1 ([2]; single kinase reactions): 40.30%; Percent phosphorylation S159, INJ2 ([2]; single kinase reactions): 37.95%
2 | 20.58% | 21.26% | 19.90% | 5.26% | 7.22% | 3.29% | 76.20% | 79.44% | 72.96% | 8.94% | 9.67% | 8.20% | 2.14% | 1.84% | 2.43% | 4.35% | 1.12% | 7.57% | MAPK14: purified recombinant kinase purchased from Invitrogen | 
3 |  |  |  |  |  |  |  |  |  |  |  |  |  |  |  |  |  |  | CC(C)C[C@@H](C=O)NC(=O)[C@H](CC(C)C)NC(=O)[C@H](CC(C)C)NC(=O)OCc1ccccc1 [MG132] (Cbz-Leu-Leu-Leu-aldehyde) | Mcl-1 degradation in mitotic arrest ([6]; HeLa, HCT116 cells, MG132 added as cells entered mitotic arrest): blocked Mcl-1 degradation
4 |  |  |  |  |  |  |  |  |  |  |  |  |  |  |  |  |  |  | CC[C@]1(O)C[C@H]2CN(CCc3c([nH]c4ccccc34)[C@@](C(=O)OC)(c3cc4c(cc3OC)N(C=O)[C@H]3[C@@](O)(C(=O)OC)[C@H](OC(C)=O)[C@]5(CC)C=CCN6CC[C@]43[C@@H]65)C2)C1 [vincristine, 22-Oxovincaleukoblastine] | sensitivity to killing ([7]; BCL-X−/− MEFs vs wild-type): not BCL-X enhances sensitivity; sensitivity to killing ([7]; MCL-1−/− MEFs vs wild-type): enhanced sensitivity; sensitivity to drug-induced death upon reducing Mcl-1 protein ([8]; FBW7-null HCT116 cells, doxycycline-inducible Mcl-1 shRNA): restored their sensitivity; resistance to drug-induced cell death ([8]; FBW7-null cell lines relative to wild-type cells): more resistant; drug-induced apoptosis upon decreasing Mcl-1 protein levels ([9]; FBW7-null cells with Mcl-1 shRNA vs control shRNA): enhanced; exit from drug-induced mitotic arrest (mitotic slippage) ([9]; FBW7-null vs FBW7-wild-type cells): more readily
5 |  |  |  |  |  |  |  |  |  |  |  |  |  |  |  |  |  |  | Nc1[nH]nc2nnc(-c3c(-c4ccccc4)nn4ccccc34)cc12 [FR180204] | Mcl-1 degradation in mitotic arrest ([6]; HeLa released into paclitaxel, CGP74514A 2 μM, FR180204 2 μM, SP600125 25 μM, SB203580 2 μM added on entry into mitotic arrest): but not ERK, attenuate Mcl-1 degradation
6 |  |  |  |  |  |  |  |  |  |  |  |  |  |  |  |  |  |  | COC(=O)Nc1nc2ccc(C(=O)c3cccs3)cc2[nH]1 [nocodazole] | killing (cell viability) ([7]; BAX−/−/BAK−/− MEFs): resistant; killing (cell viability) ([7]; wild-type MEFs): significantly more sensitive; Mcl-1 protein level in mitotic arrest ([6]; synchronized cells (HeLa) released into the agent): declined markedly
7 | 11.82% | 11.75% | 11.89% | 6.02% | 6.46% | 5.57% | 48.52% | 48.92% | 48.11% | 2.02% | 2.30% | 1.74% | 0.61% | 0.73% | 0.49% | 4.82% | 5.41% | 4.22% | MAPK9: purified recombinant kinase purchased from Invitrogen | 
